Experimental findings from ChEMBL document CHEMBL1201862, “PubChem BioAssay data set” (2004) are described below.

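Where inhibition never reached the appropriate level, the endpoint shown equals the highest concentration tested. Otherwise, values were interpolated linearly from a five-concentration, 48-hour dose response in 96-well plates. GI50 is the concentration that inhibits growth by half.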 The source made the active and inactive calls. No stated cut-off is given here; in the data, active = GI50 up to about 1.1 µM and inactive = higher.

Some test systems named below: RPMI-8226; SNB-75; K562; OVCAR-4; T47D; HCT-116; Malme-3M; UACC-257; SK-MEL-28; ACHN; SF-295; RXF 393; TK-10; LOX IMVI; MDA-MB-435; BT-549; U-251; NCI-H522; UO-31.
Common to all, as to test: NCI anticancer screen, dose series, 48 h

Regarding `Cc1nn(C(=O)c2ccncc2)c2c1C(c1ccc(Cl)cc1)SC(=N)N2` (configuration not stated), the GI50 in the test on RPMI-8226, in the test on SNB-75, in the test with K562, with OVCAR-4, with T47D and in the test with HCT-116 was > 10 µM (inactive) each time. Besides, the GI50 with Malme-3M, in the test on UACC-257, in the test on SK-MEL-28, in the test with ACHN, in the test with SF-295 and with RXF 393 was > 10 µM (inactive) in each case. Further, the GI50 in the test on TK-10, with LOX IMVI, in the test with MDA-MB-435 and in the test on BT-549 was > 10 µM (inactive) each time.
For the compound `COc1cccc(-c2cc(O)c3cc(N4CCOCC4)ccc3n2)c1`, the GI50 was 0.361 µM (active) in the test with RPMI-8226; 0.037 µM (active) with U-251; 0.0377 µM (active) in the test on SNB-75; 0.0212 µM (active) in the test on K562; 6.76 µM (inactive) in the test with OVCAR-4; > 10 µM (inactive) in the test on T47D. In addition, the GI50 in the test on HCT-116 was 0.0221 µM (active); with Malme-3M, 0.0131 µM (active); in the test on UACC-257, 0.0559 µM (active); in the test with SK-MEL-28, 0.0748 µM (active); with ACHN it was 0.0524 µM (active); in the test on SF-295 it was 0.041 µM (active). Besides, the GI50 in the test on NCI-H522 is 0.0158 µM (active); in the test with TK-10, 4.26 µM (inactive); with UO-31 it was 0.0372 µM (active); with LOX IMVI, 0.049 µM (active); in the test on MDA-MB-435, 0.00834 µM (active); in the test with BT-549, 0.964 µM (active).
With `Cc1c2ccccc2c(/C=N/NC(=O)CSCC(=O)N/N=C/c2c3ccccc3c(C)c3ccccc23)c2ccccc12`, the GI50 is 17.2 µM (inactive) in the test on RPMI-8226; 29.6 µM (inactive) in the test on U-251; > 27.4 µM (inactive) in the test on SNB-75; 37.9 µM (inactive) with K562; > 42.1 µM (inactive) with OVCAR-4; > 25.6 µM (inactive) in the test on T47D. Moreover, the GI50 in the test on HCT-116 is 55.6 µM (inactive); with Malme-3M, 37 µM (inactive); in the test on UACC-257, 31.6 µM (inactive); in the test with SK-MEL-28 it was > 60.7 µM (inactive); with ACHN it was > 47.8 µM (inactive); in the test with SF-295, 16 µM (inactive). In addition, the GI50 in the test with RXF 393 was 16.3 µM (inactive); in the test on TK-10, 29 µM (inactive); in the test on UO-31, > 84.1 µM (inactive); with LOX IMVI it was > 57.4 µM (inactive); with MDA-MB-435, > 79.6 µM (inactive); in the test on BT-549, 40.7 µM (inactive).
For `O=C(O)CC(CC(=O)O)n1cccc1`, the GI50 with RPMI-8226, in the test with U-251, in the test with K562, in the test on OVCAR-4, in the test on T47D and in the test with HCT-116 was > 100 µM (inactive) each time. Also, the GI50 in the test on UACC-257, with SK-MEL-28, in the test with ACHN, in the test on SF-295, with RXF 393 and in the test on NCI-H522 was > 100 µM (inactive) in each case. In addition, the GI50 in the test with TK-10, in the test on UO-31, in the test with LOX IMVI, in the test with MDA-MB-435 and with BT-549 was > 100 µM (inactive) in each case.
Consider `CNC1=CC(=O)C2=C(C1=O)[C@H]1CC[C@]3(C)C(=O)CC[C@H]3[C@@H]1CC2`, for which the GI50 was 17.3 µM (inactive) with RPMI-8226; 21.8 µM (inactive) with U-251; 14.3 µM (inactive) in the test with SNB-75; 12.6 µM (inactive) in the test on K562; 9.38 µM (inactive) with OVCAR-4; 18.9 µM (inactive) in the test with T47D. Moreover, the GI50 is 16.9 µM (inactive) in the test with HCT-116; 13.2 µM (inactive) with UACC-257; 18.2 µM (inactive) with SK-MEL-28; 21.6 µM (inactive) in the test with ACHN; 15.3 µM (inactive) in the test on SF-295; 15.2 µM (inactive) in the test on RXF 393. Also, the GI50 in the test on TK-10 is 62.4 µM (inactive); in the test with UO-31 it was 18.8 µM (inactive); in the test with LOX IMVI, 4.54 µM (inactive); with MDA-MB-435 it was 5.66 µM (inactive); in the test on BT-549 it was 16.4 µM (inactive).
Regarding `C=CCOC1(CC=C)C(=O)OC2C(O)COC21O` (configuration not stated), the GI50 with U-251, in the test on K562, with OVCAR-4, in the test on T47D, with HCT-116 and with Malme-3M was > 100 µM (inactive) in each case. For the same compound, the GI50 with UACC-257, in the test with SK-MEL-28, in the test on ACHN, in the test on SF-295, in the test on RXF 393 and with NCI-H522 was > 100 µM (inactive) in each case. For the same compound, the GI50 in the test on TK-10, with UO-31, in the test with LOX IMVI, in the test with MDA-MB-435 and with BT-549 was > 100 µM (inactive) each time.
Consider `O=C1CC(=O)NC(NN2C(=O)CSC2c2ccc(Cl)c(Cl)c2)=N1` (configuration not stated), for which the GI50 was > 100 µM (inactive) in the test with RPMI-8226; > 100 µM (inactive) in the test on U-251; 75 µM (inactive) in the test with SNB-75; 49.8 µM (inactive) in the test with K562; > 100 µM (inactive) with OVCAR-4; > 100 µM (inactive) in the test with T47D. The GI50 in the test on HCT-116 is 63.2 µM (inactive); in the test with Malme-3M it was > 100 µM (inactive); in the test on UACC-257 it was > 100 µM (inactive); in the test with SK-MEL-28, > 100 µM (inactive); in the test with ACHN, > 100 µM (inactive); with SF-295 it was > 100 µM (inactive). Further, the GI50 in the test with RXF 393 is > 100 µM (inactive); in the test with NCI-H522, 71.8 µM (inactive); with TK-10, > 100 µM (inactive); in the test on UO-31, > 100 µM (inactive); in the test with MDA-MB-435, 65 µM (inactive); in the test with BT-549, > 100 µM (inactive).
As for `CCOC(=O)c1nnn(CCCCO)c1C(=O)OCC`, the GI50 in the test with U-251, in the test on SNB-75, with OVCAR-4, with T47D, with HCT-116 and in the test with Malme-3M was > 100 µM (inactive) in each case. The GI50 is > 100 µM (inactive) with UACC-257; > 100 µM (inactive) in the test with SK-MEL-28; > 10 µM (inactive) in the test on ACHN; > 100 µM (inactive) with SF-295; > 100 µM (inactive) with RXF 393; > 100 µM (inactive) in the test on TK-10. The GI50 in the test on UO-31, with LOX IMVI, with MDA-MB-435 and with BT-549 was > 100 µM (inactive) each time.
`C[C@@H]1CC[C@H]2C(C)(C)[C@H]3C[C@@]12CC[C@@]3(C)O` [CEDROL]: the GI50 with RPMI-8226 was 24.6 µM (inactive); with U-251, > 10 µM (inactive); in the test on SNB-75, > 100 µM (inactive); in the test with K562, 92 µM (inactive); with OVCAR-4, > 100 µM (inactive); with T47D, > 100 µM (inactive). Besides, the GI50 in the test on HCT-116 was > 100 µM (inactive); with UACC-257, > 100 µM (inactive); in the test with SK-MEL-28 it was 60 µM (inactive); with ACHN, > 100 µM (inactive); in the test with SF-295, > 100 µM (inactive); with NCI-H522, 45.9 µM (inactive). For the same compound, the GI50 with TK-10 is > 100 µM (inactive); in the test with UO-31 it was > 100 µM (inactive); in the test on LOX IMVI, > 100 µM (inactive); with MDA-MB-435, 92.5 µM (inactive); in the test with BT-549, > 100 µM (inactive).
For the compound `CC1=CC(=O)C[C@]2(C)[C@@H](O)CC(C(C)CO)C[C@@H]12` (some centres not stated), the GI50 in the test with U-251, with SNB-75, in the test on OVCAR-4, in the test on T47D, in the test with HCT-116 and in the test on UACC-257 was > 100 µM (inactive) throughout. The GI50 in the test on SK-MEL-28, in the test with ACHN, in the test on SF-295, in the test with RXF 393, in the test with TK-10 and with UO-31 was > 100 µM (inactive) in each case. Also, the GI50 with LOX IMVI, with MDA-MB-435 and with BT-549 was > 100 µM (inactive) in each case.
Regarding `Cn1c(=O)c2nc(/N=N/Nc3nncs3)[nH]c2n(C)c1=O`, the GI50 with U-251, with K562, in the test on OVCAR-4, with T47D, with HCT-116 and with UACC-257 was > 100 µM (inactive) in each case. Moreover, the GI50 with SK-MEL-28, in the test with ACHN, in the test with SF-295, with RXF 393, in the test with TK-10 and in the test on UO-31 was > 100 µM (inactive) each time. The GI50 in the test on LOX IMVI, in the test with MDA-MB-435 and in the test with BT-549 was > 100 µM (inactive) in each case.
For the compound `CCN1CCCn2c(=O)[nH]c3cc(Br)cc1c32`, the GI50 in the test with RPMI-8226 is > 100 µM (inactive); with U-251, 41.3 µM (inactive); in the test with SNB-75, 16.7 µM (inactive); with K562, > 100 µM (inactive); in the test on OVCAR-4, > 100 µM (inactive); in the test on T47D, 65.5 µM (inactive). Besides, the GI50 was > 100 µM (inactive) with HCT-116; > 100 µM (inactive) in the test with Malme-3M; > 100 µM (inactive) in the test with UACC-257; > 100 µM (inactive) in the test on SK-MEL-28; > 100 µM (inactive) with ACHN; 35.1 µM (inactive) in the test on SF-295. Besides, the GI50 in the test with RXF 393 was 15.2 µM (inactive); in the test with TK-10 it was 51.6 µM (inactive); in the test on UO-31 it was > 100 µM (inactive); in the test on LOX IMVI it was > 100 µM (inactive); with MDA-MB-435, > 100 µM (inactive); in the test on BT-549, 14.6 µM (inactive).
